Data from patent US20210009627A1, “CYCLIC DINUCLEOTIDE COMPOUNDS CONTAINING 2-AZA-HYPOXANTHINE OR 6H-PYTAZOLO[1,5-D][1,2,4]TRIZAIN-7-ONE AS STRING AGONISTS” (BOEHRINGER INGELHEIM INTERNATIONAL GMBH, priority 2018, published 2021).
Counter-ions that a name gives are not always drawn.

Experiments:
[1] = molecular target: T1, hSTING HAQ (Homo sapiens, UniProt Q86WV6, G230A/H232R/R293Q/R71H); experiment: THP1-Blue ISG hSTING KO reporter cells expressing hSTING HAQ variant; type: cell-based; details: HAQ variant cell line
T1 construct: expressed in transfected cells; host or cells: THP1-Blue ISG hSTING KO clone, retroviral MSCV-ires-GFP-Blasti
T1 sequence (Q86WV6 whole entry R71H/G230A/H232R/R293Q): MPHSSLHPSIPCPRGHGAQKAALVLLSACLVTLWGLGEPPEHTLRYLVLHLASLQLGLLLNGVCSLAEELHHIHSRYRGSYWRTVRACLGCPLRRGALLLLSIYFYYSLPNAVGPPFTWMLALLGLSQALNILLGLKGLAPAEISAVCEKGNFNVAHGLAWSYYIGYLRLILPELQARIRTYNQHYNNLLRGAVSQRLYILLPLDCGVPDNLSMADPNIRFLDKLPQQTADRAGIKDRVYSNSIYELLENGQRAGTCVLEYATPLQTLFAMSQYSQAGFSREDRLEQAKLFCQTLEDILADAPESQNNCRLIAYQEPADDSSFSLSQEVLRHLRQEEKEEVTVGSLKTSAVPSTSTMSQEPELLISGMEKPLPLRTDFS
Text: (§1) Several single nucleotide polymorphisms have been identified in the human STING gene that may affect the response to cyclic dinucleotides. To determine the activity of compounds of the invention, THP1-Blue ISG reporter cell lines expressing the different human STING variants have been generated. To do so, the endogenous human STING was first deleted using the CRISPR/CAS9 system: THP1-Blue ISG cells were electroporated with ALL-IN-ONE CRISPR plasmids targeting the STING gene (purchased from Sigma encoding the gRNA and GFP as a reporter gene for successful transduction). GFP positive cells then were sorted 24 h post transfection and expanded. Cells were then dispersed in semisolid methocel medium to allow single cell clone isolations. Clones were then screened for cGAMP responsiveness using the Quanti-blue reporter assay. Non-responsive clones were subsequently analysed for STING loss by western blotting and sequencing of the STING locus.
(§2) For the overexpression of the human STING variants, a confirmed THP1-Blue ISG hSTING KO clone was transduced with individual retroviral plasmids (MSCV-ires-GFP-Blasti) encoding the allelic variants of hSTING (WT, HAQ, R232H, AQ and R293Q), respectively. Transduced cells were sorted for different levels of GFP fluorescence and STING allele expression was analysed by western blot.

[2] = molecular target: Human STING (hSTING, residues 155-341, wild-type sequence) (Homo sapiens, UniProt Q86WV6, H232R); experiment: hSTING binding by differential scanning fluorimetry (DSF); details: 100 μM test compound, 3 μM target protein, thermal shift, at least two measurements averaged; read-out: hSTING Tm shift
Chain of Human STING (hSTING, residues 155-341, wild-type sequence) (Q86WV6 155-341 H232R): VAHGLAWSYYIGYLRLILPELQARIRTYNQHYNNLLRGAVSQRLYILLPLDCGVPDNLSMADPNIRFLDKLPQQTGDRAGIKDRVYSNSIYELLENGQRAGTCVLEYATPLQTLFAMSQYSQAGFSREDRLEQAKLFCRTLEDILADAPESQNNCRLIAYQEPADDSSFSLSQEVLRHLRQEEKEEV
Protocol: 3) 2 μl of this protein-dye-mixture (25× SYPRO Orange and 15 μM Protein) was added to 8 μl compound solution. Final volume was 10 μL. 4) Certain well positions were used as negative control. 5) The plates were prepared for duplicate measurement and centrifuged for 2 min at 1000 g. 6) In the measurement, 160 cycles of 0.5° C. were used (temperature ramp 15 s/cycle, 15° C. to 95° C.). Data analysis: The dissociation curves were processed in Bio-Rad CFX Manager. Peak type was set to “negative”. At least two measurements were averaged.

[3] = molecular target: T2, hSTING WT (Homo sapiens, UniProt Q86WV6, H232R); experiment: THP1-Blue ISG hSTING KO reporter cells expressing hSTING WT variant; type: cell-based; details: WT variant cell line
T2 construct: expressed in transfected cells; host or cells: THP1-Blue ISG hSTING KO clone, retroviral MSCV-ires-GFP-Blasti
T2 sequence (Q86WV6 whole entry H232R): as the sequence (Q86WV6 whole entry R71H/G230A/H232R/R293Q) above, with H71R, A230G, Q293R counted along it
Text: as §1, §2

[4] = molecular target: T3, hSTING AQ (Homo sapiens, UniProt Q86WV6, G230A/H232R/R293Q); experiment: THP1-Blue ISG hSTING KO reporter cells expressing hSTING AQ variant; type: cell-based; details: AQ variant cell line
T3 construct: expressed in transfected cells; host or cells: THP1-Blue ISG hSTING KO clone, retroviral MSCV-ires-GFP-Blasti
T3 sequence (Q86WV6 whole entry G230A/H232R/R293Q): as the sequence (Q86WV6 whole entry R71H/G230A/H232R/R293Q) above, with H71R counted along it
Text: as §1, §2

[5] = molecular target: T4, hSTING R232H (Homo sapiens, UniProt Q86WV6); experiment: THP1-Blue ISG hSTING KO reporter cells expressing hSTING R232H variant; type: cell-based; details: R232H variant cell line
T4 construct: expressed in transfected cells; host or cells: THP1-Blue ISG hSTING KO clone, retroviral MSCV-ires-GFP-Blasti
T4 sequence (Q86WV6 whole entry, stated change not applied): as the sequence (Q86WV6 whole entry R71H/G230A/H232R/R293Q) above, with H71R, A230G, R232H, Q293R counted along it
Text: as §1, §2

[6] = molecular target: T5, human STING protein in THP1-Blue ISG cells (Homo sapiens, UniProt Q86WV6, G230A/H232R/R293Q/R71H); experiment: In vitro cytokine induction, THP1-Blue ISG reporter cell assay (IRF-inducible SEAP); type: cell-based; details: 24 hours incubation, SEAP OD at 620 nm
T5 construct: host or cells: THP1-Blue ISG cells
T5 sequence (Q86WV6 whole entry R71H/G230A/H232R/R293Q): as the sequence (Q86WV6 whole entry R71H/G230A/H232R/R293Q) above
Text: In Vitro Cytokine Induction
Activation of the STING protein expressed in THP1 cells results in an increase of interferon production. By the stable integration of an interferon regulatory factor (IRF)-inducible SEAP (secreted embryonic alkaline phosphatase) reporter construct the functional interferon signaling pathway can be monitored. Using Invivogen's QUANTI-Blue™ colorimetric enzyme assay and a suitable optical density (OD) reader the activity of SEAP can be detected and quantified. This technique could be used to characterize pharmacological modification of the STING protein. Measurements of SEAP activity were performed in THP1-Blue™ ISG cells stably expressing the human STING protein and the IRF-inducible SEAP reporter construct. Cells were cultivated for expansion in RPMI1640 medium with 10% fetal calf serum, 50 μg/ml Penicillin-Streptomycin, 100 μg/ml Zeocin, and 100 μg/ml Normocin in a 37°, 95% humidity and 5% CO2 incubator. Assay-ready cells were stored as frozen stocks.
In preparation for the assay, the cells were thawed in Zeocin-/Normocin-free medium and were distributed into the assay plates with a density of 15000 cells/15 μL per well. […]
At the day of the assay, 75 μl per well of Quanti-Blue reagent was added to all wells of the plate and the plate was incubated another 30 minutes at 37° C. The OD at 620 nm was measured on the EnVision reader (PerkinElmer). […]

[7] = molecular target: T6, hSTING R293Q (Homo sapiens, UniProt Q86WV6, H232R/R293Q); experiment: THP1-Blue ISG hSTING KO reporter cells expressing hSTING R293Q variant; type: cell-based; details: R293Q variant cell line
T6 construct: expressed in transfected cells; host or cells: THP1-Blue ISG hSTING KO clone, retroviral MSCV-ires-GFP-Blasti
T6 sequence (Q86WV6 whole entry H232R/R293Q): as the sequence (Q86WV6 whole entry R71H/G230A/H232R/R293Q) above, with H71R, A230G counted along it
Text: as §1, §2

Row | Structure (SMILES) | EC50 [1] [µM] | ΔTm at 100 µM [2] [°C] | EC50 [3] [µM] | EC50 [4] [µM] | EC50 [5] [µM] | EC50 [6] [µM] | EC50 [7] [µM]
1 | Nc1ncnc2c1ncn2[C@@H]1O[C@@H]2COP(=O)(S)O[C@@H]3[C@H](O)[C@@H](COP(=O)(S)O[C@H]2[C@H]1F)O[C@H]3n1cnc2c(=O)[nH]nnc21 (single isomer, unassigned) [Example 1.1, Cyclic 2-azainosine-(2′→5′)-phosphorothioate-2′-F-2′-deoxyadenosine-(3′→5′)-phosphoro-thioate sodium salt] | 510 | 23.9 | 510 | 510 | 510 | 0.16 | 510
2 | Nc1ncnc2c1ncn2[C@@H]1O[C@@H]2COP(=O)(S)O[C@@H]3[C@H](O)[C@@H](COP(=O)(S)O[C@H]2[C@H]1F)O[C@H]3c1cnn2c(=O)[nH]ncc12 (single isomer, unassigned) [Example 2.1, Cyclic 8-δ-D-ribofuranosyl-pyrazolo[1,5-d]-1,2,4-triazin-4(3H)-one-(2′→5′)-phosphorothioate-2′-F-2′-deoxyadenosine-(3′→5′)-phosphorothioate sodium salt] | – | 17.9 | – | – | – | 0.14 | –
